Source: US12084419B2, “Cell metabolism modulating compounds and uses thereof” (CRESCENTA BIOSCIENCES, priority 2020, dated 2024)

Biological target: T1, His6 tagged human recombinant FABP4 (Homo sapiens, UniProt P15090)
T1 construct: purchased Cayman Chemicals 10009549
Test: FABP4 TR-FRET assay: displacement of BODIPY FL C12 fatty acid
Conditions: triplicates, inhibition of BODIPY FL C12 binding; for inhibition at 1 µM: 1 μM compound; for inhibition at 10 µM: 10 μM compound
Excerpt: Activity of compounds with FABP4 was profiled using a Terbium (Tb) based time resolved fluorescence energy transfer (TR-FRET) assay. The assay measures the compound mediated displacement of the fluorescent fatty acid BODIPY FL C12 (Thermo Fisher; catalog number D3822) from His6 tagged human recombinant FABP4 (His6-FABP4; Cayman Chemicals, catalog number 10009549) via recording the energy transfer from TB donor molecule on anti-His6-tag antibody to acceptor BODIPY moiety. Briefly, compounds were prepared at a concentration of 0.362 mM and 0.0362 mM, and BODIPY FL C12 was prepared at 4.2 μM, in DMSO. 1.2 μL of each compound or DMSO (vehicle control) and 1.2 μL of BODIPY FL C12 were added into the wells of a 384-well black polypropylene plate. His6-FABP4 and Tb anti-His6 antibody were prepared in the assay buffer (25 mM Tris/HCl, pH 7.4, 0.4 mg/ml y-globulins, 0.010% NP-40, 1 mM DTT) at a concentration of 83 nM and 49.6 nM, respectively. The protein and antibody solutions were then mixed at a ratio of 34:7 (v/v) and incubated on ice for 30 minutes. The assay was initiated by adding 41 μL of the resulting protein/antibody solution into the wells containing the compounds and BODIPY FL C12. The plate was centrifuged and incubated at room temperature for 10 min. The TR-FRET signals were recorded using an EnVision Multilabel plate reader (PerkinElmer; TB excitation 320 nm, BODIPY FL C12 emission 520 nm; TB emission 615 nm). Relative fluorescence ratio (520 nm*10,000/615 nm) were used to calculate the compound mediated inhibition of BODIPY C12 FL fatty acid binding to FABP4. […] Glucose consumption and FABP4 inhibition is shown below in Table 3 below.

T1 sequence (P15090 whole entry): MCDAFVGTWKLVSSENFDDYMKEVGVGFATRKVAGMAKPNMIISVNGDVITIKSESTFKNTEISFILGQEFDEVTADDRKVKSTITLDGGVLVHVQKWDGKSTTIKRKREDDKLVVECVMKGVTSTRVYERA

Structure (SMILES) | inhibition at 1 µM [%] | inhibition at 10 µM [%]
CCCCCC1Cc2c(n(Cc3cccc(C(N)=O)c3)c3c(C(=O)O)cccc23)C1 (centres unmarked) [4-[(3-carbamoylphenyl)methyl]-2-pentyl-1H,2H,3H,4H-cyclopenta[b]indole-5-carboxylic acid] | 86.9 | 93.1
CCC1CCc2c1n(Cc1cccc(C(N)=O)c1)c1c(C(=O)O)cccc21 (centres unmarked) [4-[(3-carbamoylphenyl)methyl]-3-ethyl-1H,2H,3H,4H-cyclopenta[b]indole-5-carboxylic acid] | 87.3 | 102
CCCC1CCc2c1n(Cc1cccc(C(N)=O)c1)c1c(C(=O)O)cccc21 (centres unmarked) [4-[(3-carbamoylphenyl)methyl]-3-propyl-1H,2H,3H,4H-cyclopenta[b]indole-5-carboxylic acid] | 89.1 | 95.3
CCCCCC1Cc2c(n(Cc3cccc(C#N)c3)c3c(C(=O)O)cccc23)C1 (centres unmarked) [4-[(3-cyanophenyl)methyl]-2-pentyl-1H,2H,3H,4H-cyclopenta[b]indole-5-carboxylic acid] | 39.5 | 78.3
CCC1CCc2c1n(Cc1cccc(C#N)c1)c1c(C(=O)O)cccc21 (centres unmarked) [4-[(3-cyanophenyl)methyl]-3-ethyl-1H,2H,3H,4H-cyclopenta[b]indole-5-carboxylic acid] | 54.8 | 86.2
CCCC1CCc2c1n(Cc1cccc(C#N)c1)c1c(C(=O)O)cccc21 (centres unmarked) [4-[(3-cyanophenyl)methyl]-3-propyl-1H,2H,3H,4H-cyclopenta[b]indole-5-carboxylic acid] | 67.8 | 97.6
CCCCC1CCCc2c1c1cccc(C(=O)O)c1n2Cc1cccc(C(N)=O)c1 (centres unmarked) [4-butyl-9-[(3-carbamoylphenyl)methyl]-2,3,4,9-tetrahydro-1H-carbazole-8-carboxylic acid] | 43.3 | 83.4
CCCCC1CCCc2c1c1cccc(C(=O)O)c1n2Cc1cccc(C#N)c1 (centres unmarked) [4-butyl-9-[(3-cyanophenyl)methyl]-2,3,4,9-tetrahydro-1H-carbazole-8-carboxylic acid] | 25.3 | 65.5
CCCCCCC1CCCc2c(n(C(=O)c3cccc(C#N)c3)c3c(C(=O)O)cccc23)C1 (centres unmarked) [5-(3-cyanobenzoyl)-7-hexyl-5H,6H,7H,8H,9H,10H-cyclohepta[b]indole-4-carboxylic acid] | 87.1 | 88.5
CCCCCCC1CCCc2c(n(Cc3ccc4ocnc4c3)c3c(C(=O)O)cccc23)C1 (centres unmarked) [5-[(1,3-benzoxazol-5-yl)methyl]-7-hexyl-5H,6H,7H,8H,9H,10H-cyclohepta[b]indole-4-carboxylic acid] | – | 88.5
CCCCCCC1CCCc2c(n(Cc3ccc4ncoc4c3)c3c(C(=O)O)cccc23)C1 (centres unmarked) [5-[(1,3-benzoxazol-6-yl)methyl]-7-hexyl-5H,6H,7H,8H,9H,10H-cyclohepta[b]indole-4-carboxylic acid] | 101 | 94.9
CCCCCCC1CCCc2c(n(Cc3cccc4ncoc34)c3c(C(=O)O)cccc23)C1 (centres unmarked) [5-[(1,3-benzoxazol-7-yl)methyl]-7-hexyl-5H,6H,7H,8H,9H,10H-cyclohepta[b]indole-4-carboxylic acid] | 92 | 95.3
CCCCCCC1CCCc2c(n(Cc3ccccc3C(N)=O)c3c(C(=O)O)cccc23)C1 (centres unmarked) [5-[(2-carbamoylphenyl)methyl]-7-hexyl-5H,6H,7H,8H,9H,10H-cyclohepta[b]indole-4-carboxylic acid] | 79.2 | 82
CCCCCCC1CCCc2c(n(Cc3ccccc3C#N)c3c(C(=O)O)cccc23)C1 (centres unmarked) [5-[(2-cyanophenyl)methyl]-7-hexyl-5H,6H,7H,8H,9H,10H-cyclohepta[b]indole-4-carboxylic acid] | – | 88.6
CCCCCCC1CCCc2c(n(Cc3ccccc3F)c3c(C(=O)O)cccc23)C1 (centres unmarked) [5-[(2-fluorophenyl)methyl]-7-hexyl-5H,6H,7H,8H,9H,10H-cyclohepta[b]indole-4-carboxylic acid] | 77.5 | 87.3
CCCCCCC1CCCc2c(n(Cc3ccnc(F)c3)c3c(C(=O)O)cccc23)C1 (centres unmarked) [5-[(2-fluoropyridin-4-yl)methyl]-7-hexyl-5H,6H,7H,8H,9H,10H-cyclohepta[b]indole-4-carboxylic acid] | 92.8 | 90.4
CCCCCCC1CCCc2c(n(Cc3c(C)noc3C)c3c(C(=O)O)cccc23)C1 (centres unmarked) [5-[(3,5-dimethyl-1,2-oxazol-4-yl)methyl]-7-hexyl-5H,6H,7H,8H,9H,10H-cyclohepta[b]indole-4-carboxylic acid] | 79.8 | 95.6
NC(=O)c1cccc(Cn2c3c(c4cccc(C(=O)O)c42)CCCC(CCc2ccccc2)C3)c1 (centres unmarked) [5-[(3-carbamoylphenyl)methyl]-7-(2-phenylethyl)-5H,6H,7H,8H,9H,10H-cyclohepta[b]indole-4-carboxylic acid] | 99.1 | 98
CCC1CCCc2c(n(Cc3cccc(C(N)=O)c3)c3c(C(=O)O)cccc23)C1 (centres unmarked) [5-[(3-carbamoylphenyl)methyl]-7-ethyl-5H,6H,7H,8H,9H,10H-cyclohepta[b]indole-4-carboxylic acid] | 91.8 | 100
CCCCCCC1CCCc2c(n(Cc3cccc(C(N)=O)c3)c3c(C(=O)O)cccc23)C1 (centres unmarked) [5-[(3-carbamoylphenyl)methyl]-7-hexyl-5H,6H,7H,8H,9H,10H-cyclohepta[b]indole-4-carboxylic acid] | 102 | 94.2
CCCCCCCCC1CCCc2c(n(Cc3cccc(C(N)=O)c3)c3c(C(=O)O)cccc23)C1 (centres unmarked) [5-[(3-carbamoylphenyl)methyl]-7-octyl-5H,6H,7H,8H,9H,10H-cyclohepta[b]indole-4-carboxylic acid] | 98.1 | 93.6
CCCCCC1CCCc2c(n(Cc3cccc(C(N)=O)c3)c3c(C(=O)O)cccc23)C1 (centres unmarked) [5-[(3-carbamoylphenyl)methyl]-7-pentyl-5H,6H,7H,8H,9H,10H-cyclohepta[b]indole-4-carboxylic acid] | 91.2 | 93.3
CCCC1CCCc2c(n(Cc3cccc(C(N)=O)c3)c3c(C(=O)O)cccc23)C1 (centres unmarked) [5-[(3-carbamoylphenyl)methyl]-7-propyl-5H,6H,7H,8H,9H,10H-cyclohepta[b]indole-4-carboxylic acid] | 85.1 | 91.4
CCC1CCCCc2c1c1cccc(C(=O)O)c1n2Cc1cccc(C(N)=O)c1 (centres unmarked) [5-[(3-carbamoylphenyl)methyl]-10-ethyl-5H,6H,7H,8H,9H,10H-cyclohepta[b]indole-4-carboxylic acid] | 86.4 | 98
CCCCCC1CCCCc2c1c1cccc(C(=O)O)c1n2Cc1cccc(C(N)=O)c1 (centres unmarked) [5-[(3-carbamoylphenyl)methyl]-10-pentyl-5H,6H,7H,8H,9H,10H-cyclohepta[b]indole-4-carboxylic acid] | 81.1 | 96.1
CCCC1CCCCc2c1c1cccc(C(=O)O)c1n2Cc1cccc(C(N)=O)c1 (centres unmarked) [5-[(3-carbamoylphenyl)methyl]-10-propyl-5H,6H,7H,8H,9H,10H-cyclohepta[b]indole-4-carboxylic acid] | 38.8 | 91.6
